According to ChEMBL document CHEMBL1201862, “PubChem BioAssay data set” (2004):
Active and inactive are the calls of the source.

Key:
HEK293 [1] = experiment: cells; details: Homo sapiens
HEK293 [2] = experiment: cells; details: Homo sapiens; remark: listed apart in the source
HEK293 [3] = experiment: inhibitors of LMP1-driven NF-kB reporter, dose response, cell-based, HEK293, luciferase, cherry-pick (AID 588343); type: functional; details: Homo sapiens
[4] = molecular target: Latent membrane protein 1 (Human herpesvirus 4 (strain B95-8), UniProt P03230); experiment: TES1-eGFP NF-kB reporter inhibition versus Tet-On dsRED, dose response, selectivity assay for LMP1 NF-kB inhibitor project, imaging, HEK293T, dual-color eGFP/dsRED, cherry-picks (AID 588398); type: functional, cell-based
[5] = tested on: Streptococcus sp. 'group A'; experiment: growth inhibition of control SK(-) GAS strain, dose response, counter-screen for streptokinase expression inhibitor project, luminescence, kanamycin, BacTiterGlo, confirmation (AID 1900); type: functional, organism-based
BJ [6] = experiment: cytotoxicity toward BJ-TERT fibroblasts, dose response, cell-based, RAS-independent, luminescence (AID 1933); type: functional; details: Homo sapiens
BJ [7] = experiment: cells; type: functional, cell-based; details: Homo sapiens
BJ [8] = experiment: cytotoxicity toward BJ-TERT-LT-ST fibroblasts, dose response, cell-based, RAS-independent, luminescence (AID 1935); type: functional; details: Homo sapiens;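 further: BJ fibroblasts immortalized with TERT plus LT and ST oncogenes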
[9] = cytotoxicity toward DRD oncogenic fibroblasts, dose response, cell-based, non-viral oncogenic, luminescence (AID 1934); type: functional; details: Homo sapiens
Streptococcus = experiment: Group A Streptococcus viability loss, dose response, counter-screen for streptokinase expression inhibitor project, luminescence, BacTiterGlo (AID 1915); type: functional, organism-based;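 further: potency for reduction of bacterial viability or growth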
Nonstructural protein 1 = Nonstructural protein 1 (Influenza A virus, UniProt Q194T2); type: functional, Influenza A virus (A/California/07/2009(H1N1))
BJ [10] = experiment: cytotoxicity toward Ras-transformed BJeLR fibroblasts, dose response, cell-based, alamar blue fluorescence, cherrypicked samples (AID 2631); type: functional; details: Homo sapiens;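 further: confirmatory dose-response assay in RAS-dependent BJ fibroblasts engineered with TERT, LT and ST, with cytotoxicity read by fluorescence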
Vero = experiment: cells; type: functional; details: Chlorocebus sabaeus
ORF 73 = molecular target: T1, ORF 73 (Human herpesvirus 8, UniProt O40947); experiment: inhibitors of C-LANA binding to LBS DNA, dose response, biochemical, fluorescence polarization, cherry-picked samples (AID 504725); parameters: species or system Human gammaherpesvirus 8;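 further: fluorescence polarization of a labeled DNA duplex reporting LANA DNA binding; potency is for inhibitors that block LANA binding to the DNA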
T1 sequence (O40947 whole entry): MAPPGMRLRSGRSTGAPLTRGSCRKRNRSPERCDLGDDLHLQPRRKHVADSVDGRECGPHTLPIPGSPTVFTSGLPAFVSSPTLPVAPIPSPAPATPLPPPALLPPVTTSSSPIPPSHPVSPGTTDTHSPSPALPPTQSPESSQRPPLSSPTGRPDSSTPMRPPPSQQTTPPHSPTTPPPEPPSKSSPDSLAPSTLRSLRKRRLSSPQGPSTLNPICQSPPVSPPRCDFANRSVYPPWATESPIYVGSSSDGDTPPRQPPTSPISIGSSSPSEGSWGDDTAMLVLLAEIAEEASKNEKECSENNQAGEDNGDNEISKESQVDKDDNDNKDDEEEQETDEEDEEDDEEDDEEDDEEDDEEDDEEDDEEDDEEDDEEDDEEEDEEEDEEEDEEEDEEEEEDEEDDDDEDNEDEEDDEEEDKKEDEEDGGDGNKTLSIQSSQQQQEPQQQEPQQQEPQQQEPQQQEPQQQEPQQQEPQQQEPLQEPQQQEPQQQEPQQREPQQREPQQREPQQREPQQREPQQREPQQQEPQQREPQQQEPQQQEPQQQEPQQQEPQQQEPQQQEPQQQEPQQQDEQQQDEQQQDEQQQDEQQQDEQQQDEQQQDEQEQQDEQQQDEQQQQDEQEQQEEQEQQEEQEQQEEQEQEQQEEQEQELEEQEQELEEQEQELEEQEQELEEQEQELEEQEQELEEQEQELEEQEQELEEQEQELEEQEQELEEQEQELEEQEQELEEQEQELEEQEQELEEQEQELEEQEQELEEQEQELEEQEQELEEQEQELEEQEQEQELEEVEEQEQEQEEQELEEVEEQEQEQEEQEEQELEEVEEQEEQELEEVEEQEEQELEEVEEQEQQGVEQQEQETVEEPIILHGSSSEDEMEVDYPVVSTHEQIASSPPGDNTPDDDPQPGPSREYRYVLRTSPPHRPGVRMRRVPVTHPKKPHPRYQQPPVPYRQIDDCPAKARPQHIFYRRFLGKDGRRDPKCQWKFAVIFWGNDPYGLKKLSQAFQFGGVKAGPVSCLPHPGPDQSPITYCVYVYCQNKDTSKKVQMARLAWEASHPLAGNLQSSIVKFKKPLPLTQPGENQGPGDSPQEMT

Keap1/Nrf2 = Keap1/Nrf2 (Homo sapiens, UniProt Q14145); experiment: Keap1-Nrf2 protein-protein interaction inhibitors, dose response, biochemical, fluorescence polarization, cherry-picked samples (AID 588683)
Escherichia coli = experiment: microbe, parasite or virus in culture

Sequence of Nonstructural protein 1 (Q194T2 whole entry): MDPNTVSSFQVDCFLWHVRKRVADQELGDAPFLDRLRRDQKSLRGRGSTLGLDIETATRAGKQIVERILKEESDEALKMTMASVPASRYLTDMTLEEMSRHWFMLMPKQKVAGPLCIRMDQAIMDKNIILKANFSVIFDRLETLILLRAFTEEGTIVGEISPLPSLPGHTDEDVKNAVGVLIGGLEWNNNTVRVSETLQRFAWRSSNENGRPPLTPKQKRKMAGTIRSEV
Sequence of Latent membrane protein 1 (P03230 whole entry): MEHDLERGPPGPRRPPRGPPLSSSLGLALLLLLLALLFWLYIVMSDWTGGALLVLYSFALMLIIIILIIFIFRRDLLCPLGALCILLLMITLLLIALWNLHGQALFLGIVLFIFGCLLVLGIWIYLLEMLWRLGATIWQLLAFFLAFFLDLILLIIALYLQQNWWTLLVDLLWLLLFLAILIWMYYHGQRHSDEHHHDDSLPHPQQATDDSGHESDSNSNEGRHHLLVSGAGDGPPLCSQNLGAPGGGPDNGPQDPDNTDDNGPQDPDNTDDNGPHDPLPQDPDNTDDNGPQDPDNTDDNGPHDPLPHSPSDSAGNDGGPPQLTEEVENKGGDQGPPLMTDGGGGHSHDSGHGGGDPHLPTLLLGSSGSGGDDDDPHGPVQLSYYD
Sequence of Keap1/Nrf2 (Q16236 whole entry): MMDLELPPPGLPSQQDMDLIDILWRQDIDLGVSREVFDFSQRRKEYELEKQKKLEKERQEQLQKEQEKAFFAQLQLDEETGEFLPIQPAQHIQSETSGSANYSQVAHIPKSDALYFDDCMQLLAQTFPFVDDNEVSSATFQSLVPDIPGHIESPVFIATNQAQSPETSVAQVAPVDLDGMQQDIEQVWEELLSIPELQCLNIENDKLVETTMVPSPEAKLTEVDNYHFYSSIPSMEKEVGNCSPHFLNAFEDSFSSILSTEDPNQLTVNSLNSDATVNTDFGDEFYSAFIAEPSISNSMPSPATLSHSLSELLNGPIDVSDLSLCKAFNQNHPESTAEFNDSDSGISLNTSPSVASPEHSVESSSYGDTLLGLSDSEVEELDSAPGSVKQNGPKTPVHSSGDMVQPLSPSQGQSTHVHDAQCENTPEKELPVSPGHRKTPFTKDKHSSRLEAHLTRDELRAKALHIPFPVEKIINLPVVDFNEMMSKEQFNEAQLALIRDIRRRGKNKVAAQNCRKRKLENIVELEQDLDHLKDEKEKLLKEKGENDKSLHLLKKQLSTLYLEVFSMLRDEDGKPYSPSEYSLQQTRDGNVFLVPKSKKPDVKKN
Sequence of Keap1/Nrf2 (Q14145 whole entry): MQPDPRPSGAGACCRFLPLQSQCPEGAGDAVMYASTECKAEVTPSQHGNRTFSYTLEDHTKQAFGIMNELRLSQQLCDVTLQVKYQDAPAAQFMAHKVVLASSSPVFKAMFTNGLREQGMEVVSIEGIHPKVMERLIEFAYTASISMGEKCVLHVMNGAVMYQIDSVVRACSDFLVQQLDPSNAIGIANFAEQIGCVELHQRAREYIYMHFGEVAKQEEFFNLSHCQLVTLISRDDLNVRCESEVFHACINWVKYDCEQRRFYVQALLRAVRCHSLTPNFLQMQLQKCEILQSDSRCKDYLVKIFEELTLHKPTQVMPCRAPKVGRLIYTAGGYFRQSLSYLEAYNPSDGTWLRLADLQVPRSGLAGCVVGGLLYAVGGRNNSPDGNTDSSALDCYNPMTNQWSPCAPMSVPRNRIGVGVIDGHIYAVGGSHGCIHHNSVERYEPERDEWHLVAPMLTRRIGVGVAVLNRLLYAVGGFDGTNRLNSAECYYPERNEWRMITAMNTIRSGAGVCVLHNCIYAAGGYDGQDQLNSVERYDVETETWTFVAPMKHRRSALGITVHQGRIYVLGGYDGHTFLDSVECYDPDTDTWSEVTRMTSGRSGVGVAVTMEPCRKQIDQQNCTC

Q: Which EC50 (HEK293 [1]) does the source give for `O=C1CN(c2nc(-c3cccnc3)nc3sc4c(c23)CCCC4)CCN1` here?
A: > 59.6 µM (inactive)

Q: And the EC50 (HEK293 [2])?
A: > 59.6 µM (inactive)

Q: With `O=C(CF)N(O)c1ccc(C=Cc2ccccc2)cc1` as the compound, how does the AC50 (HEK293 [3]) read?
A: 0.732 µM (active)

Q: And the AC50 [4]?
A: 0.734 µM (active)

Q: For `C/C(=N\NC(=O)c1cccc2ccccc12)c1ccccn1`, which EC50 [5] is on record?
A: 2.88 µM (active)

Q: And the EC50 (BJ [6])?
A: 5.73 µM (active)

Q: What about the EC50 (BJ [7]) of the same compound?
A: 3.45 µM (active)

Q: And the EC50 (BJ [8])?
A: 3.87 µM (active)

Q: And the EC50 [9]?
A: 2.4 µM (active)

Q: And the EC50 (Streptococcus)?
A: 6.39 µM (active)

Q: What about the IC50 (Nonstructural protein 1) of the same compound?
A: 7.25 µM (active)

Q: What about the EC50 (BJ [10]) of the same compound?
A: 0.497 µM (inconclusive)

Q: What about the CC50 (Vero) of the same compound?
A: 3.56 µM (active)

Q: With `O=C(c1ccccc1)c1ccc(O)cc1O` [2,4-DIHYDROXYBENZOPHENONE] as the compound, how does the AC50 (ORF 73) read?
A: 5.38 µM (active)

Q: What about the AC50 (Keap1/Nrf2) of the same compound?
A: 11.1 µM (active)

Q: For `CC1CCc2c(N3CCC(O)CC3)c(F)cc3c(=O)c(C(=O)O)cn1c23` (stereo unspecified) [NADIFLOXACIN], which AC50 (Escherichia coli) is on record?
A: 1.3 µM (active)
